Source: patent US11883524B2, “Cosmetic compositions” (MARY KAY INC., priority 2018, dated 2024)

Legend:
[1] = target: T1, MMP3 (Homo sapiens, UniProt P08254); assay: Inhibition of matrix metalloproteinase enzyme activity (MMP3) assay; type: biochemical
T1 construct: purchased BioMol International AK-400
Source text: Inhibition of Matrix Metalloproteinase Enzyme Activity (MMP3) Assay: MMPs are extracellular proteases that play a role in many normal and disease states by virtue of their broad substrate specificity. MMP3 substrates include collagens, fibronectins, and laminin; while MMP9 substrates include collagen VII, fibronectins and laminin. Using Colorimetric Drug Discovery kits from BioMol International for MMP3 (AK-400) and MMP-9 (AK-410), this assay was designed to measure protease activity of MMPs using a thiopeptide as a chromogenic substrate (Ac-PLG-[2-mercapto-4-methyl-pentanoyl]-LG-OC2H5)5,6. The MMP cleavage site peptide bond was replaced by a thioester bond in the thiopeptide. Hydrolysis of this bond by an MMP produced a sulfhydryl group, which reacted with DTNB [5,5′-dithiobis(2-nitrobenzoic acid), Ellman's reagent] to form 2-nitro-5-thiobenzoic acid, which was detected by its absorbance at 412 nm (ε=13,600 M-1 cm-1 at pH 6.0 and above 7). Tetrahexyldecyl ascorbate was assayed.

[2] = system: procollagen peptide production by human epidermal fibroblasts; assay: Increase of collagen stimulation (procollagen peptide ELISA); type: cell-based; settings: human adult epidermal fibroblasts, treated 3 days
Source text: Increase of Collagen Stimulation: Collagen is an extracellular matrix protein critical for skin structure. Increased synthesis of collagen helps improve skin firmness and elasticity. This bioassay was used to examine the effect of tetrahexyldecyl ascorbate, and/or Phyllanthus emblica fruit extract on the production of procollagen peptide (a precursor to collagen) by human epidermal fibroblasts. The endpoint of this assay was a spectrophotometric measurement that reflects the presence of procollagen peptide and cellular viability. The assay employed the quantitative sandwich enzyme immunoassay technique whereby a monoclonal antibody specific for procollagen peptide had been pre-coated onto a microplate. Standards and samples were pipetted into the wells and any procollagen peptide present was bound by the immobilized antibody. […] Following a wash to remove any unbound antibody-enzyme reagent, a substrate solution was added to the wells and color develops in proportion to the amount of procollagen peptide bound in the initial step using a microplate reader for detection at 450 nm. The color development was stopped and the intensity of the color was measured. […] Following incubation, cell culture medium was collected and the amount of procollagen peptide secretion quantified using a sandwich enzyme linked immuno-sorbant assay (ELISA) from Takara (#MK101).

T1 sequence (P08254 100-272 limits assumed): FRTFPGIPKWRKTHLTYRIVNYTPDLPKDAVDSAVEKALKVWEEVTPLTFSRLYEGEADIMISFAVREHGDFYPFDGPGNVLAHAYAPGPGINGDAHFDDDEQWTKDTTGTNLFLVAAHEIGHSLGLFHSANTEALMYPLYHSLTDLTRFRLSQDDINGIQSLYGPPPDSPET

Inhibition of MMP3 activity [1]: −38%
Structure (SMILES): CCCCCCCCC(CCCCCC)C(=O)OC[C@H](OC(=O)C(CCCCCC)CCCCCCCC)[C@H]1OC(=O)C(OC(=O)C(CCCCCC)CCCCCCCC)=C1OC(=O)C(CCCCCC)CCCCCCCC (some centres unmarked) [Tetrahexyldecyl ascorbate]
Increase of collagen [2]: +50%
